The values below come from ChEMBL document CHEMBL3102738, “Synthesis and biological evaluation of nitric oxide-donating analogues of sulindac for prostate cancer treatment” (Bioorg Med Chem, 2014).

What all share (type): functional
The subject of assay [1] is PC-3. The experiment in a line: Cytotoxicity against human PC3 cells assessed as cell viability at 50 uM after 48 hrs by crystal violet method (reference value: 100.87 +/- 4.87%). As to conditions: PC-3, 48 h, read-out: Activity.
The test system of assay [2] is PC-3. The experiment in a line: Cytotoxicity against human PC3 cells assessed as cell viability at 50 uM after 72 hrs by crystal violet method (reference value: 95.69 +/- 7.66%). As to conditions: PC-3, 72 h, read-out: Activity.
Assay [3] deals with PC-3. In words: Cytotoxicity against human PC3 cells assessed as cell viability at 50 uM after 24 hrs by crystal violet method (reference value: 99.09 +/- 9.87%). The note with it: PC-3, 24 h, read-out: Activity.

As to `CC1=C(CC(=O)OCCCCO)c2cc(F)ccc2/C1=C\c1ccc([S+](C)[O-])cc1` (configuration not stated), the viability at 50 µM came to 76.9% in the assay with PC-3 [1], 96.5% in the assay with PC-3 [2] and 96.6% in the assay on PC-3 [3].
For `CC1=C(CC(=O)OCCCCCCO[N+](=O)[O-])c2cc(F)ccc2/C1=C\c1ccc([S+](C)[O-])cc1` (configuration not stated), the viability at 50 µM with PC-3 [1] was found to be 72.7%; with PC-3 [2], 88.1%; with PC-3 [3], 105%.
On to `CSc1ccc(/C=C2/C(C)=C(CC(=O)O)c3cc(F)ccc32)cc1` [SULINDAC SULFIDE], for which the viability at 50 µM in the assay on PC-3 [1] amounted to 93.7%; with PC-3 [2] it was 105%; in the assay on PC-3 [3] it was 99.2%.
For `CSc1ccc(/C=C2/C(C)=C(CC(=O)OCC(CO[N+](=O)[O-])(CO[N+](=O)[O-])CO[N+](=O)[O-])c3cc(F)ccc32)cc1`, in that order: 101%, 110% and 88.3%.
With `CC1=C(CC(=O)OCCOc2no[n+]([O-])c2S(=O)(=O)c2ccccc2)c2cc(F)ccc2/C1=C\c1ccc(S(C)(=O)=O)cc1`, the viability at 50 µM in the assay with PC-3 [1], in the assay with PC-3 [2] and with PC-3 [3] was 0% each time.
With `CC1=C(CC(=O)/N=c2\c[n+](-c3ccccc3)[n-]o2)c2cc(F)ccc2/C1=C\c1ccc(S(C)(=O)=O)cc1`, the results for the viability at 50 µM in the assay on PC-3 [1], in the assay with PC-3 [2] and in the assay on PC-3 [3] were 74.5%, 81.1% and 108%, respectively.
For `CC1=C(CC(=O)OCCCOc2no[n+]([O-])c2S(=O)(=O)c2ccccc2)c2cc(F)ccc2/C1=C\c1ccc([S+](C)[O-])cc1` (configuration not stated), the viability at 50 µM with PC-3 [1], in the assay with PC-3 [2] and with PC-3 [3] was 0% throughout.
Consider `CC1=C(CC(=O)OCCCOc2no[n+]([O-])c2S(=O)(=O)c2ccccc2)c2cc(F)ccc2/C1=C\c1ccc(S(C)(=O)=O)cc1`, for which the viability at 50 µM in the assay with PC-3 [1], in the assay with PC-3 [2] and in the assay with PC-3 [3] was 0% throughout.
On to `CC1=C(CC(=O)OCCCCOc2no[n+]([O-])c2S(=O)(=O)c2ccccc2)c2cc(F)ccc2/C1=C\c1ccc([S+](C)[O-])cc1` (configuration not stated), for which the viability at 50 µM with PC-3 [1] stood at 21.8%; in the assay on PC-3 [2], 16.5%; in the assay with PC-3 [3], 32.3%.
The corresponding values for `CSc1ccc(/C=C2/C(C)=C(CC(=O)OCCCCO[N+](=O)[O-])c3cc(F)ccc32)cc1` are 28.4%, 17.1% and 49.4%.
Regarding `CC1=C(CC(=O)OCCOCCOc2no[n+]([O-])c2S(=O)(=O)c2ccccc2)c2cc(F)ccc2/C1=C\c1ccc(S(C)(=O)=O)cc1`, the viability at 50 µM in the assay on PC-3 [1], with PC-3 [2] and with PC-3 [3] was 0% each time.
Consider `CC1=C(CC(=O)Oc2cccc(Oc3no[n+]([O-])c3S(=O)(=O)c3ccccc3)c2)c2cc(F)ccc2/C1=C\c1ccc(S(C)(=O)=O)cc1`, for which the viability at 50 µM in the assay on PC-3 [1], in the assay with PC-3 [2] and in the assay on PC-3 [3] was 0% in each case.
As for `CC1=C(CC(=O)OCCCCO)c2cc(F)ccc2/C1=C\c1ccc(S(C)(=O)=O)cc1`, the figures for the viability at 50 µM in the assay on PC-3 [1], in the assay with PC-3 [2] and in the assay with PC-3 [3] were 81.5%, 86.6% and 87.4%, respectively.
Turning to `CC1=C(CC(=O)OCc2cccc(Oc3no[n+]([O-])c3S(=O)(=O)c3ccccc3)c2)c2cc(F)ccc2/C1=C\c1ccc([S+](C)[O-])cc1` (configuration not stated), the viability at 50 µM in the assay on PC-3 [1] was 56.2%; in the assay with PC-3 [2], 51.9%; with PC-3 [3], 71.8%.
The corresponding values for `CSc1ccc(/C=C2/C(C)=C(CC(=O)OCCO[N+](=O)[O-])c3cc(F)ccc32)cc1` are 119%, 91.2% and 95.6%.
On to `CSc1ccc(/C=C2/C(C)=C(CC(=O)OC/C=C\COc3no[n+]([O-])c3S(=O)(=O)c3ccccc3)c3cc(F)ccc32)cc1`, for which the viability at 50 µM in the assay on PC-3 [1] was found to be 31.4%; in the assay on PC-3 [2], 20.6%; with PC-3 [3] it was 30.6%.
For the molecule `CSc1ccc(/C=C2/C(C)=C(CC(=O)OCCOCCOc3no[n+]([O-])c3S(=O)(=O)c3ccccc3)c3cc(F)ccc32)cc1`, the viability at 50 µM in the assay with PC-3 [1] was determined as 71%; with PC-3 [2], 50.8%; in the assay with PC-3 [3], 55.2%.
For `CSc1ccc(/C=C2/C(C)=C(CC(=O)OC(CO[N+](=O)[O-])CO[N+](=O)[O-])c3cc(F)ccc32)cc1`, the viability at 50 µM with PC-3 [1] came to 92.3%; in the assay on PC-3 [2], 93.5%; with PC-3 [3], 91.2%.
On to `CC1=C(CC(=O)Oc2cccc(Oc3no[n+]([O-])c3S(=O)(=O)c3ccccc3)c2)c2cc(F)ccc2/C1=C\c1ccc([S+](C)[O-])cc1` (configuration not stated), for which the viability at 50 µM is 67.7% in the assay with PC-3 [1], 66.3% with PC-3 [2] and 74% with PC-3 [3].
Consider `CC1=C(CC(=O)OCCCCO[N+](=O)[O-])c2cc(F)ccc2/C1=C\c1ccc([S+](C)[O-])cc1` (configuration not stated), for which the viability at 50 µM is 35.5% in the assay with PC-3 [1], 24.5% in the assay on PC-3 [2] and 58.8% in the assay with PC-3 [3].
`CSc1ccc(/C=C2/C(C)=C(CC(=O)OCCCCO)c3cc(F)ccc32)cc1`: the viability at 50 µM is 80.5% with PC-3 [1], 84% in the assay on PC-3 [2] and 98.2% in the assay with PC-3 [3].
For `CC1=C(CC(=O)OC/C=C\COc2no[n+]([O-])c2S(=O)(=O)c2ccccc2)c2cc(F)ccc2/C1=C\c1ccc(S(C)(=O)=O)cc1`, the viability at 50 µM in the assay with PC-3 [1], in the assay on PC-3 [2] and with PC-3 [3] was 0% each time.
As to `CC1=C(CC(=O)OCC(CO[N+](=O)[O-])(CO[N+](=O)[O-])CO[N+](=O)[O-])c2cc(F)ccc2/C1=C\c1ccc(S(C)(=O)=O)cc1`, the viability at 50 µM worked out at 84.5% with PC-3 [1], 95.3% with PC-3 [2] and 101% in the assay with PC-3 [3].
For `CC1=C(CC(=O)OC(CO[N+](=O)[O-])CO[N+](=O)[O-])c2cc(F)ccc2/C1=C\c1ccc(S(C)(=O)=O)cc1`, the viability at 50 µM in the assay with PC-3 [1] turned out to be 89%; in the assay with PC-3 [2], 89.4%; with PC-3 [3] it was 88%.
For `CC1=C(CC(=O)OC(CO[N+](=O)[O-])CO[N+](=O)[O-])c2cc(F)ccc2/C1=C\c1ccc([S+](C)[O-])cc1` (configuration not stated), in that order: 44.9%, 30.2% and 46.5%.
As for `CC1=C(CC(=O)OCC(CO[N+](=O)[O-])(CO[N+](=O)[O-])CO[N+](=O)[O-])c2cc(F)ccc2/C1=C\c1ccc([S+](C)[O-])cc1` (configuration not stated), the viability at 50 µM stood at 79.8% with PC-3 [1], 89.6% in the assay on PC-3 [2] and 86% in the assay with PC-3 [3].
In the case of `CC1=C(CC(=O)O)c2cc(F)ccc2/C1=C\c1ccc(S(C)(=O)=O)cc1` [EXISULIND], the viability at 50 µM amounted to 91% with PC-3 [1], 83.5% in the assay with PC-3 [2] and 87.8% in the assay with PC-3 [3].
For `CSc1ccc(/C=C2/C(C)=C(CC(=O)OCc3cccc(Oc4no[n+]([O-])c4S(=O)(=O)c4ccccc4)c3)c3cc(F)ccc32)cc1`, in that order: 79.7%, 82.7% and 102%.
For `CC1=C(CC(=O)OCc2cccc(Oc3no[n+]([O-])c3S(=O)(=O)c3ccccc3)c2)c2cc(F)ccc2/C1=C\c1ccc(S(C)(=O)=O)cc1`, the results for the viability at 50 µM with PC-3 [1], in the assay with PC-3 [2] and in the assay with PC-3 [3] were 67.7%, 63.6% and 88.3%, respectively.
`CSc1ccc(/C=C2/C(C)=C(CC(=O)Oc3cccc(Oc4no[n+]([O-])c4S(=O)(=O)c4ccccc4)c3)c3cc(F)ccc32)cc1`: the viability at 50 µM is 88.3% with PC-3 [1], 80.7% in the assay with PC-3 [2] and 81.1% with PC-3 [3].
As to `CC1=C(CC(=O)OCCCCOc2no[n+]([O-])c2S(=O)(=O)c2ccccc2)c2cc(F)ccc2/C1=C\c1ccc(S(C)(=O)=O)cc1`, the results for the viability at 50 µM in the assay on PC-3 [1], in the assay with PC-3 [2] and with PC-3 [3] were 49.9%, 38.8% and 67.9%, respectively.
For the molecule `CC1=C(CC(=O)OCC#CCOc2no[n+]([O-])c2S(=O)(=O)c2ccccc2)c2cc(F)ccc2/C1=C\c1ccc(S(C)(=O)=O)cc1`, the figures for the viability at 50 µM with PC-3 [1], in the assay with PC-3 [2] and in the assay on PC-3 [3] were 38%, 27.3% and 36.5%, respectively.
Regarding `CC1=C(CC(=O)OCCO[N+](=O)[O-])c2cc(F)ccc2/C1=C\c1ccc(S(C)(=O)=O)cc1`, the viability at 50 µM with PC-3 [1] is 96.2%; in the assay with PC-3 [2] it was 84.4%; with PC-3 [3], 84.4%.
With `CC1=C(CC(=O)OCCO[N+](=O)[O-])c2cc(F)ccc2/C1=C\c1ccc([S+](C)[O-])cc1` (configuration not stated), the viability at 50 µM in the assay on PC-3 [1] is 54.9%; in the assay with PC-3 [2], 35.5%; in the assay with PC-3 [3], 73%.
`CSc1ccc(/C=C2/C(C)=C(CC(=O)OCCCCCCOc3no[n+]([O-])c3S(=O)(=O)c3ccccc3)c3cc(F)ccc32)cc1`: the viability at 50 µM in the assay on PC-3 [1] is 41.7%; in the assay with PC-3 [2] it was 29.2%; in the assay on PC-3 [3], 57.2%.
As to `CC1=C(CC(=O)OCCCCCCO[N+](=O)[O-])c2cc(F)ccc2/C1=C\c1ccc(S(C)(=O)=O)cc1`, the figures for the viability at 50 µM in the assay on PC-3 [1], in the assay with PC-3 [2] and in the assay with PC-3 [3] were 59%, 64% and 93.3%, respectively.
The corresponding values for `CSc1ccc(/C=C2/C(C)=C(CC(=O)OCCCCCCO[N+](=O)[O-])c3cc(F)ccc32)cc1` are 85.1%, 104% and 92.4%.
The corresponding values for `CSc1ccc(/C=C2/C(C)=C(CC(=O)/N=c3\c[n+](-c4ccccc4)[n-]o3)c3cc(F)ccc32)cc1` are 90.8%, 77% and 89%.
On to `CC1=C(CC(=O)OCCCCCCOc2no[n+]([O-])c2S(=O)(=O)c2ccccc2)c2cc(F)ccc2/C1=C\c1ccc(S(C)(=O)=O)cc1`, for which the viability at 50 µM in the assay on PC-3 [1] was determined as 24.2%; in the assay with PC-3 [2] it was 15.4%; in the assay with PC-3 [3], 42.4%.
